Results: patent US8691799B2, “Materials and methods for treatment of cancer and identification of anti-cancer compounds” (priority 2001, dated 2014)

Columns and labels:
[1] = system: Ras/NIH 3T3 tumors; assay: Antitumor activity, oncogenic Ras-transformed NIH 3T3 tumors in nude mice; format: in vivo; settings: 1 mg/kg/day i.p.
Description: Antitumor Activity in the Nude Mouse Tumor Xenograft Model. Nude mice and C57 BL-6 black mice (National Cancer Institute, Bethesda, Md.) were maintained in accordance with the Institutional Animal Care and Use Committee (IACUC) procedures and guidelines. v-Src- and oncogenic H-Ras-transformed NIH 3T3, A549, MDA-MB-468 and Calu-1 cells were harvested, resuspended in PBS and injected s.c. into the right and left flank (10×10^6 cells per flank) of 8 week old female nude mice as reported previously (Sun, J. et al. Cancer Res., 1999, 59:4919-4926). Similarly, murine B16-F10 Melanoma cells were injected s.c. into the right and left flank (10^6 cells per flank) of C57 black mice. When tumors reached about 150 mm^3, animals were randomized (five animals per group; two tumors per animal) and dosed i.p. with 0.2 ml once daily. Control animals received DMSO (20%) vehicle whereas treated animals were injected with JSI-124 (1 mg/kg/day) in 20% DMSO in water. The tumor volumes were determined by measuring the length (l) and the width (w) and calculating the volume (V=1w^2/2) as described previously (Sun, J. et al. Cancer Res., 1999, 59:4919-4926). Statistical significance between control and treated animals were evaluated by using Student's t-test. […] Percent surviving mice was determined by monitoring the death of mice until all mice died. […]

[2] = system: JAK1; assay: JAK kinase autophosphorylation assay on immunoprecipitates (JAK1); format: biochemical; settings: immunoprecipitates from MDA-MB-468 or v-Src/NIH 3T3 cells; AG490 100 μM, PD180970 2 μM
Method: JAK Kinase Assays. A549, MDA-MB-468, and v-Src transformed NIH 3T3 cells were harvested, washed three times in PBS-V (10 mM sodium phosphate, pH 7.4, 137 mM NaCl, 1 mM sodium orthovanadate) then lysed for 30 min on ice in JAK kinase lysis buffer (25 mM Hepes, pH 7.4, 0.1% Triton-X-100, 0.5 mM DTT, 1 mM sodium orthovanadate, 1 mM PMSF, 10 μg/ml aprotinin, 10 μg/ml leupeptin). Samples were spun at high speed to clear, and 800-1000 μg of protein was immunoprecipitated per treatment condition with 50 ng of either JAK1 or JAK2 antibody (Santa Cruz Biotechnology) rocking overnight at 4° C. 25 μl of protein A/G PLUS agarose then was added and rocking continued for 1 hr at 4° C. Samples were spun to collect agarose pellet, and pellet washed twice in wash buffer (50 mM Hepes, pH 7.4, 0.1% Triton-X-100, 0.5 mM DTT, 150 mM NaCl) and once in phosphorylation buffer (50 mM Hepes, pH 7.4, 0.1% Triton-X-100, 0.5 mM DTI, 6.25 mM manganese chloride, 100 mM NaCl). Kinase reactions were performed at 30° C. for 15 min in a final volume of 100 μl of phosphorylation buffer. Samples were pretreated with DMSO control, JSI-124, and control compounds (AG490, 100 μM, and […], 2 μM) before addition of 20 μCi/sample y-[^32P]ATP. Reaction was halted using stop buffer (wash buffer plus 10 mM EDTA), samples spun to collect pellet, then pellet washed once with stop buffer and twice with wash buffer. Samples were then placed in 2×SDS-PAGE sample buffer, boiled at 100° C., and run on 8% SDS-PAGE gels to separate proteins. Autophosphorylation results were visualized by autoradiography.

SMILES: CC(C)(O)/C=C/C(=O)[C@](C)(O)[C@H]1[C@H](O)C[C@@]2(C)[C@@H]3CC=C4[C@@H](C=C(O)C(=O)C4(C)C)[C@]3(C)C(=O)C[C@]12C [JSI-124, cucurbitacin I]
- growth of Ras/NIH 3T3 tumors [1]: resistant
- JAK1 kinase activity (autophosphorylation) in vitro [2]: not affected
